Test results from PMC5647378, “Structural and Mechanistic Analysis of Drosophila melanogaster Agmatine N-Acetyltransferase, an Enzyme that Catalyzes the Formation of N-Acetylagmatine” (Scientific Reports, 2017).
Read-outs that look alike come from different tables or passages of the source.

How the values were obtained:
[1] = target: T1, Drosophila melanogaster AgmNAT (CG15766), wild-type (Drosophila melanogaster, UniProt Q9W469); test: AgmNAT dead-end and product inhibition analysis; assay type: biochemical
Procedure: Initial velocities were determined by varying the concentration of one substrate, while holding the other substrate at a fixed concentration. […] The resulting initial velocity data was fit to equation 3 for an ordered Bi-Bi mechanism and equation 4 for a ping pong mechanism using IGOR Pro 6.34 A, where vo is the initial velocity, Vmax is the maximal velocity, Kia is the dissociation constant for substrate A, Kb is the Michaelis constant for substrate B, Ka is the Michaelis constant for substrate A, [A] is the concentration of substrate A, and [B] is the concentration of substrate B.3 vo=Vmax[A][B]/KiaKb+Ka[B]+Kb[A]+[A][B] 4 vo=Vmax[A][B]/Ka[B]+Kb[A]+[A][B]
Inhibition experiments by either substrate analogs or N-acetylagamatine were used to discriminate between an ordered, random sequential, or ping pong kinetic mechanism. […] Initial velocity patterns were generated by varying the concentration of one substrate, holding the other substrate concentration at its apparent Km, and changing the concentration of inhibitor for each data set in triplicate. The resulting data was fit to equations 5–7, for competitive, noncompetitive, and uncompetitive inhibition respectively using SigmaPlot 12.0. For […], vo is the initial velocity, Vmax,app is the apparent maximal velocity, Km,app is the apparent Michaelis constant, [S] is the substrate concentration, [I] is the inhibitor concentration, and Ki is the inhibition constant.5 vo=Vmax,app[S]/Km,app(1+[I]/Ki)+[S] 6 vo=Vmax,app[S]/Km,app(1+[I]/Ki)+[S](1+[I]/Ki) 7 vo=Vmax,app[S]/Km,app+[S](1+[I]/Ki)

[2] = target: T1, Drosophila melanogaster AgmNAT (CG15766), wild-type; test: AgmNAT steady-state kinetics, coenzyme A release with Ellman's reagent (DTNB); assay type: biochemical; details: for kcat,app / Km: 300 mM Tris-HCl pH 8.5, 150 µM DTNB; for acceptance as amine substrate: amine substrate screen with acetyl-CoA
Procedure: Steady-state kinetic constants for AgmNAT were determined by measuring the rate of coenzyme A release using Ellman’s reagent (DTNB) at 412 nm (molar absorptivity = 13,600 M^−1 cm^−1)[15]–[17]. […] Initial velocities were measured using a Cary 300 Bio UV-Visible spectrophotometer at 22 °C. Acyl-CoA kinetic constants were evaluated by holding the concentration of agmatine at a constant saturating concentration (5 mM). […] The apparent kinetic constants were determined by fitting the resulting data to equation 1 using SigmaPlot 12.0, where vo is the initial velocity, Vmax,app is the apparent maximal velocity, [S] is the substrate concentration, and Km,app is the apparent Michaelis constant. Each assay was performed in triplicate and the uncertainty for the kcat,app and (kcat/Km)app values were calculated using equation 2, where σ is the standard error.1 vo=Vmax,app[S]/Km,app+[S] 2 σ(x/y)=x/y(σx/x)^2+(σy/y)^2

[3] = substrate: NCCCCCN; test: as above; assay type: biochemical, Drosophila melanogaster; details: other: amine varied, 500 μM acetyl-CoA, 300 mM Tris-HCl pH 8.5, 150 µM DTNB, 22.0 °C
[4] = substrate: NCCCCNCCCN; test: as above; assay type: biochemical, Drosophila melanogaster; details: other: amine varied, 500 μM acetyl-CoA, 300 mM Tris-HCl pH 8.5, 150 µM DTNB, 22.0 °C
[5] = substrate: N=C(N)NCCCCN; test: as above; assay type: biochemical, Drosophila melanogaster; details: other: amine varied, 500 μM acetyl-CoA, 300 mM Tris-HCl pH 8.5, 150 µM DTNB, 22.0 °C
[6] = substrate: N=C(N)NCCCCN; test: Steady-state kinetics of AgmNAT site-directed mutant P35A; assay type: biochemical, Drosophila melanogaster; details: other: P35A, agmatine varied, saturating acetyl-CoA, pH 8.5
Source text: (§1) Following the amplification of the AgmNAT site-directed mutant, the sub-cloning, expression, and purification procedures are the same as discussed for the wild-type enzyme.

[7] = substrate: CC(=O)SCCNC(=O)CCNC(=O)[C@H](O)C(C)(C)COP(=O)(O)OP(=O)(O)OC[C@H]1O[C@@H](n2cnc3c(N)ncnc32)[C@H](O)[C@@H]1OP(=O)(O)O; test: as above; assay type: biochemical, Drosophila melanogaster; details: other: P35A, acetyl-CoA varied, saturating agmatine, pH 8.5
Source text: as §1

[8] = substrate: N=C(N)NCCCCN; test: Steady-state kinetics of AgmNAT site-directed mutant S171A; assay type: biochemical, Drosophila melanogaster; details: other: S171A, agmatine varied, saturating acetyl-CoA, pH 8.5
Source text: as §1

[9] = substrate: CC(=O)SCCNC(=O)CCNC(=O)[C@H](O)C(C)(C)COP(=O)(O)OP(=O)(O)OC[C@H]1O[C@@H](n2cnc3c(N)ncnc32)[C@H](O)[C@@H]1OP(=O)(O)O; test: as above; assay type: biochemical, Drosophila melanogaster; details: other: S171A, acetyl-CoA varied, saturating agmatine, pH 8.5
Source text: as §1

[10] = substrate: N=C(N)NCCCCN; test: Steady-state kinetics of AgmNAT site-directed mutant E34A; assay type: biochemical, Drosophila melanogaster; details: other: E34A, agmatine varied, saturating acetyl-CoA, pH 8.5
Source text: as §1

[11] = substrate: CC(=O)SCCNC(=O)CCNC(=O)[C@H](O)C(C)(C)COP(=O)(O)OP(=O)(O)OC[C@H]1O[C@@H](n2cnc3c(N)ncnc32)[C@H](O)[C@@H]1OP(=O)(O)O; test: as above; assay type: biochemical, Drosophila melanogaster; details: other: E34A, acetyl-CoA varied, saturating agmatine, pH 8.5
Source text: as §1

[12] = varied substrate agmatine, constant acetyl-CoA (0.1 mM; 104 µM), read-out: Ki,s
[13] = acyl-CoA varied, 5 mM agmatine, read-out: Km,app
[14] = amine varied, 500 μM acetyl-CoA
[15] = amine varied, 500 μM acetyl-CoA, read-out: Km, app

## NC(N)=NCCCCN=C(N)N [Arcaine]
[1]; varied substrate acetyl-CoA, constant agmatine (0.3 mM), read-out: Ki,i
  Ki: 34 ± 1 µM
[1]; [12]
  Ki: 28 ± 1 µM
[1]; versus acetyl-CoA
  type of inhibition plot (in words): uncompetitive
[1]; versus agmatine
  type of inhibition plot (in words): competitive

## CCCC(=O)SCCNC(=O)CCNC(=O)[C@H](O)C(C)(C)COP(=O)(O)OP(=O)(O)OC[C@H]1O[C@@H](n2cnc3c(N)ncnc32)[C@H](O)[C@@H]1OP(=O)(O)O [Butyryl-CoA]
[2]; acyl-CoA varied, 5 mM agmatine
  kcat,app: 3.3 ± 0.1 s⁻¹
[2]; [13]
  Km: 40 µM

## NCCCCCN [Cadaverine]
[2]; acetyl-CoA as co-substrate
  (kcat/Km)app,agmatine/(kcat/Km)app,polyamine ratio: 1900

## CCCCCCCCCC(=O)SCCNC(=O)CCNC(=O)[C@H](O)C(C)(C)COP(=O)(O)OP(=O)(O)OC[C@H]1O[C@@H](n2cnc3c(N)ncnc32)[C@H](O)[C@@H]1OP(=O)(O)O [Decanoyl-CoA]
[2]; acyl-CoA varied, 5 mM agmatine
  kcat,app: 0.16 ± 0.01 s⁻¹
[2]; [13]
  Km: 70 µM
[2]; agmatine as saturating amine substrate
  decrease in kcat,app from acetyl-CoA to decanoyl-CoA: ~ 150 fold

## CCCCCC(=O)SCCNC(=O)CCNC(=O)C(O)C(C)(C)COP(=O)(O)OP(=O)(O)OC[C@H]1O[C@@H](n2cnc3c(N)ncnc32)[C@H](O)[C@@H]1OP(=O)(O)O (some centres unmarked) [Hexanoyl-CoA]
[2]; acyl-CoA varied, 5 mM agmatine
  kcat,app: 1.1 ± 0.04 s⁻¹
[2]; [13]
  Km: 110 µM

## CC(=O)NCCCNCCCCN [N ^1-acetylspermidine]
[2]
  acceptance as amine substrate: not AgmNAT substrates

## CC(=O)NCCCCNCCCN [N ^8-acetylspermidine]
[2]; acetyl-CoA as co-substrate
  difference in Km,app relative to spermidine: ~ 2 fold
  increase in kcat,app compared to spermidine: ~ 25 fold
[2]; [14]
  kcat,app: 32 ± 2 s⁻¹
[2]; [15]
  Km: 9100 ± 1000 µM

## CC(=O)NCCCCN [N-acetylputrescine]
[2]
  acceptance as amine substrate: not AgmNAT substrates

## CCCCCCCC(=O)SCCNC(=O)CCNC(=O)[C@H](O)C(C)(C)COP(=O)(O)OP(=O)(O)OC[C@H]1O[C@@H](n2cnc3c(N)ncnc32)[C@H](O)[C@@H]1OP(=O)(O)O [Octanoyl-CoA]
[2]; acyl-CoA varied, 5 mM agmatine
  kcat,app: 0.61 ± 0.02 s⁻¹
[2]; [13]
  Km: 140 µM

## CCCCCCCC/C=C\CCCCCCCC(=O)SCCNC(=O)CCNC(=O)[C@H](O)C(C)(C)COP(=O)(O)OP(=O)(O)OC[C@H]1O[C@@H](n2cnc3c(N)ncnc32)[C@H](O)[C@@H]1OP(=O)(O)O [Oleoyl-CoA]
[2]; agmatine as amine substrate, oleoyl-CoA at 500 μM
  acceptance as acyl-CoA substrate: not a substrate
[1]; varied substrate acetyl-CoA, constant agmatine (0.3 mM), read-out: Ki,s
  Ki: 19 ± 1 µM
[1]; varied substrate agmatine, constant acetyl-CoA (0.1 mM; 104 µM), read-out: Ki,i
  Ki: 67 ± 4 µM
[1]; [12]
  Ki: 67 ± 4 µM
[1]; versus acetyl-CoA
  type of inhibition plot (in words): competitive
[1]; versus agmatine
  type of inhibition plot (in words): noncompetitive

## NCCCCN [Putrescine]
[2]; [14]
  kcat,app: 7.7 ± 0.3 s⁻¹
[2]; [15]
  Km: 51000 ± 3000 µM

## NCCCNCCCCNCCCN [Spermine]
[2]; acetyl-CoA as co-substrate
  (kcat/Km)app,agmatine/(kcat/Km)app,polyamine ratio: 15
[2]; [14]
  kcat,app: 77 ± 7 s⁻¹
[2]; [15]
  Km: 18000 ± 3000 µM

## N=C(N)NCCC[C@H](N)C(=O)O [arginine]
[2]
  acceptance as amine substrate: not AgmNAT substrates

B1: Drosophila melanogaster AgmNAT (CG15766), wild-type (Drosophila melanogaster) (protein)
chain: MAKPIADDIVVRQVDVGETEQLMTFLLAHYYPEEPLTAGTHPPEPEAADKEFLLSNVPFGTCFVALHEGRIVAAVVAGPKDSHEPEHMAEEARKYAGGKWGSILHLLSAVETATDVCRRFSVPSCLHVHALGVDPQLRGRNLGGRLMETVAQRGRDLGHQLVSVDCTSVYSARLVQRLGYQLINTLRYVDHLDASGQQVIRPPPPHESVQTFVLHL
[3]
  Km: 32000 ± 6000 µM
  kcat: 1 ± 0.1 s⁻¹
  kcat/Km: 32 ± 6 M⁻¹ s⁻¹
[4]
  Km: 17000 ± 500 µM
  kcat: 1.3 ± 0.009 s⁻¹
  kcat/Km: 76 ± 0.5 M⁻¹ s⁻¹
[5]
  Km: 300 ± 20 µM
  kcat: 18 ± 1 s⁻¹
  kcat/Km: 60000 ± 5000 M⁻¹ s⁻¹

B2: AgmNAT P35A mutant (Drosophila melanogaster; P35A) (protein)
chain: MAKPIADDIVVRQVDVGETEQLMTFLLAHYYPEEALTAGTHPPEPEAADKEFLLSNVPFGTCFVALHEGRIVAAVVAGPKDSHEPEHMAEEARKYAGGKWGSILHLLSAVETATDVCRRFSVPSCLHVHALGVDPQLRGRNLGGRLMETVAQRGRDLGHQLVSVDCTSVYSARLVQRLGYQLINTLRYVDHLDASGQQVIRPPPPHESVQTFVLHL
[6]
  Km: 180 ± 20 µM
  kcat: 0.36 ± 0.02 s⁻¹
  kcat/Km: 1900 ± 200 M⁻¹ s⁻¹
[7]
  Km: (2.3 ± 0.3) × 10^2 μM
  kcat: 0.43 ± 0.03 s⁻¹
  kcat/Km: 1900 ± 300 M⁻¹ s⁻¹

B3: AgmNAT S171A mutant (Drosophila melanogaster; S171A) (protein)
chain: MAKPIADDIVVRQVDVGETEQLMTFLLAHYYPEEPLTAGTHPPEPEAADKEFLLSNVPFGTCFVALHEGRIVAAVVAGPKDSHEPEHMAEEARKYAGGKWGSILHLLSAVETATDVCRRFSVPSCLHVHALGVDPQLRGRNLGGRLMETVAQRGRDLGHQLVSVDCTSVYAARLVQRLGYQLINTLRYVDHLDASGQQVIRPPPPHESVQTFVLHL
[8]
  Km: 1000 ± 200 µM
  kcat: 1.7 ± 0.1 s⁻¹
  kcat/Km: 1600 ± 300 M⁻¹ s⁻¹
[9]
  Km: 24 ± 1 µM
  kcat: 1.84 ± 0.03 s⁻¹
  kcat/Km: 75000 ± 3000 M⁻¹ s⁻¹

B4: AgmNAT E34A mutant (Drosophila melanogaster; E34A) (protein)
chain: MAKPIADDIVVRQVDVGETEQLMTFLLAHYYPEAPLTAGTHPPEPEAADKEFLLSNVPFGTCFVALHEGRIVAAVVAGPKDSHEPEHMAEEARKYAGGKWGSILHLLSAVETATDVCRRFSVPSCLHVHALGVDPQLRGRNLGGRLMETVAQRGRDLGHQLVSVDCTSVYSARLVQRLGYQLINTLRYVDHLDASGQQVIRPPPPHESVQTFVLHL
[10]
  Km: 6000 ± 1000 µM
  kcat: 0.013 ± 0.001 s⁻¹
  kcat/Km: 2.3 ± 0.3 M⁻¹ s⁻¹
[11]
  Km: 18 ± 3 µM
  kcat: 0.011 ± 0.0004 s⁻¹
  kcat/Km: 600 ± 100 M⁻¹ s⁻¹
